How the values were obtained:
[1] = system: barnyardgrass (Echinochloa crus-galli); test: Test B flooded paddy test, visual rating 0-100; conditions: Flood, 250 g ai/ha, applied to paddy water, rated after 13 to 15 days
corn (Zea mays) = test: Test A postemergence, visual injury rating 0-100; format: in vivo; conditions: 0 to 100 scale
[2] = system: wheat (Triticum aestivum); test: Test A postemergence, visual injury rating 0-100; format: in vivo; conditions: 0 to 100 scale
[3] = system: pigweed (Amaranthus retroflexus); test: Test A postemergence, visual injury rating 0-100; format: in vivo; conditions: 0 to 100 scale
kochia (Kochia scoparia) [4] = test: Test A postemergence, visual injury rating 0-100; format: in vivo; conditions: 0 to 100 scale
[5] = system: blackgrass (Alopecurus myosuroides); test: Test A postemergence, visual injury rating 0-100; format: in vivo; conditions: 0 to 100 scale
[6] = system: galium (catchweed bedstraw, Galium aparine); test: Test A postemergence, visual injury rating 0-100; format: in vivo; conditions: 0 to 100 scale
[7] = system: foxtail, giant (giant foxtail, Setaria faberii); test: Test A postemergence, visual injury rating 0-100; format: in vivo; conditions: 0 to 100 scale
[8] = system: ragweed (common ragweed, Ambrosia elatior); test: Test A postemergence, visual injury rating 0-100; format: in vivo; conditions: 0 to 100 scale
[9] = system: barnyardgrass (Echinochloa crus-galli); test: Test A postemergence, visual injury rating 0-100; format: in vivo; conditions: 0 to 100 scale
[10] = system: ryegrass, Italian (Italian ryegrass, Lolium multiflorum); test: Test A postemergence, visual injury rating 0-100; format: in vivo; conditions: 0 to 100 scale
[11] = system: barnyardgrass (Echinochloa crus-galli); test: Test A preemergence, visual injury rating 0-100 (0 no effect, 100 complete control); format: in vivo
[12] = system: ducksalad (Heteranthera limosa); test: Test B flooded paddy test, visual rating 0-100; conditions: Flood, 250 g ai/ha, applied to paddy water, rated after 13 to 15 days
[13] = system: pigweed (Amaranthus retroflexus); test: Test A preemergence, visual injury rating 0-100; format: in vivo
kochia (Kochia scoparia) [14] = test: Test A preemergence, visual injury rating 0-100; format: in vivo
[15] = system: foxtail, giant (giant foxtail, Setaria faberii); test: Test A preemergence, visual injury rating 0-100; format: in vivo
[16] = system: ragweed (common ragweed, Ambrosia elatior); test: Test A preemergence, visual injury rating 0-100; format: in vivo
[17] = system: ryegrass, Italian (Italian ryegrass, Lolium multiflorum); test: Test A preemergence, visual injury rating 0-100; format: in vivo
rice (Oryza sativa) = test: Test B flooded paddy test, visual rating 0-100 (0 no effect, 100 complete control); conditions: Flood, 250 g ai/ha, applied to paddy water, rated after 13 to 15 days

SMILES | Barnyardgrass plant response rating (0 to 100 scale) [1] | Corn plant response rating (corn (Zea mays); 125 g ai/ha) | Corn plant response rating (corn (Zea mays); 500 g ai/ha) | Wheat plant response rating ([2]; 125 g ai/ha) | Wheat plant response rating ([2]; 500 g ai/ha) | Pigweed plant response rating ([3]; 125 g ai/ha) | Pigweed plant response rating ([3]; 500 g ai/ha) | Kochia plant response rating (kochia (Kochia scoparia) [4]; 125 g ai/ha) | Kochia plant response rating (kochia (Kochia scoparia) [4]; 500 g ai/ha) | Blackgrass plant response rating ([5]; 125 g ai/ha) | Blackgrass plant response rating ([5]; 500 g ai/ha) | Galium plant response rating ([6]; 125 g ai/ha) | Galium plant response rating ([6]; 500 g ai/ha) | Foxtail, Giant plant response rating ([7]; 125 g ai/ha) | Foxtail, Giant plant response rating ([7]; 500 g ai/ha) | Ragweed plant response rating ([8]; 125 g ai/ha) | Ragweed plant response rating ([8]; 500 g ai/ha) | Barnyardgrass plant response rating ([9]; 125 g ai/ha) | Barnyardgrass plant response rating ([9]; 500 g ai/ha) | Ryegrass, Italian plant response rating ([10]; 125 g ai/ha) | also measured
CC1=[N+]([O-])C(C(=O)Nc2cccc(F)c2F)C(c2ccc(C(F)(F)F)c(Br)c2)C1 (racemic) [Compound 73] | 0 | 50 | 70 | 0 | 60 | 30 | 70 | 10 | 20 | 40 | 80 | 10 | 50 | 40 | 70 | 0 | 20 | 30 | 70 | 0 | Ryegrass, Italian plant response rating ([10]; 500 g ai/ha): 60; Barnyardgrass plant response rating (0 to 100 scale) ([11]; 125 g ai/ha): 90; Barnyardgrass plant response rating (0 to 100 scale) ([11]; 500 g ai/ha): 90; Ducksalad plant response rating (0 to 100 scale) [12]: 0; Pigweed plant response rating (0 to 100 scale) ([13]; 125 g ai/ha): 40; Pigweed plant response rating (0 to 100 scale) ([13]; 500 g ai/ha): 70; Kochia plant response rating (0 to 100 scale) (kochia (Kochia scoparia) [14]; 125 g ai/ha): 20; Kochia plant response rating (0 to 100 scale) (kochia (Kochia scoparia) [14]; 500 g ai/ha): 60; Foxtail, Giant plant response rating (0 to 100 scale) ([15]; 125 g ai/ha): 80; Foxtail, Giant plant response rating (0 to 100 scale) ([15]; 500 g ai/ha): 90; Ragweed plant response rating (0 to 100 scale) ([16]; 125 g ai/ha): 50; Ragweed plant response rating (0 to 100 scale) ([16]; 500 g ai/ha): 80; Ryegrass, Italian plant response rating (0 to 100 scale) ([17]; 125 g ai/ha): 50; Ryegrass, Italian plant response rating (0 to 100 scale) ([17]; 500 g ai/ha): 90; Rice plant response rating (0 to 100 scale) (rice (Oryza sativa)): 0
COc1ccc(C2CC(C)=[N+]([O-])C2C(=O)Nc2cccc(F)c2F)cc1C(F)(F)F (racemic) [Compound 74] | 45 | 40 | 80 | 60 | 60 | 20 | 40 | 0 | 10 | 70 | 70 | 20 | 50 | 60 | 80 | 0 | 20 | 80 | 90 | 0 | Ryegrass, Italian plant response rating ([10]; 500 g ai/ha): 50; Barnyardgrass plant response rating (0 to 100 scale) ([11]; 125 g ai/ha): 90; Barnyardgrass plant response rating (0 to 100 scale) ([11]; 500 g ai/ha): 90; Ducksalad plant response rating (0 to 100 scale) [12]: 20; Pigweed plant response rating (0 to 100 scale) ([13]; 125 g ai/ha): 0; Pigweed plant response rating (0 to 100 scale) ([13]; 500 g ai/ha): 60; Kochia plant response rating (0 to 100 scale) (kochia (Kochia scoparia) [14]; 125 g ai/ha): 30; Kochia plant response rating (0 to 100 scale) (kochia (Kochia scoparia) [14]; 500 g ai/ha): 90; Foxtail, Giant plant response rating (0 to 100 scale) ([15]; 125 g ai/ha): 90; Foxtail, Giant plant response rating (0 to 100 scale) ([15]; 500 g ai/ha): 90; Ragweed plant response rating (0 to 100 scale) ([16]; 125 g ai/ha): 40; Ragweed plant response rating (0 to 100 scale) ([16]; 500 g ai/ha): 40; Ryegrass, Italian plant response rating (0 to 100 scale) ([17]; 125 g ai/ha): 90; Ryegrass, Italian plant response rating (0 to 100 scale) ([17]; 500 g ai/ha): 90; Rice plant response rating (0 to 100 scale) (rice (Oryza sativa)): 0
CC1=[N+]([O-])C(C(=O)Nc2cccc(F)c2F)C(c2cccc(C)c2C)C1 (racemic) [Compound 77] | 75 | 50 | 60 | 50 | 70 | 0 | 20 | 0 | 20 | 60 | 80 | 50 | 70 | 90 | 90 | 20 | 60 | 80 | 90 | 40 | Ryegrass, Italian plant response rating ([10]; 500 g ai/ha): 70; Barnyardgrass plant response rating (0 to 100 scale) ([11]; 125 g ai/ha): 90; Barnyardgrass plant response rating (0 to 100 scale) ([11]; 500 g ai/ha): 90; Ducksalad plant response rating (0 to 100 scale) [12]: 100; Pigweed plant response rating (0 to 100 scale) ([13]; 125 g ai/ha): 20; Pigweed plant response rating (0 to 100 scale) ([13]; 500 g ai/ha): 70; Kochia plant response rating (0 to 100 scale) (kochia (Kochia scoparia) [14]; 125 g ai/ha): 10; Kochia plant response rating (0 to 100 scale) (kochia (Kochia scoparia) [14]; 500 g ai/ha): 70; Foxtail, Giant plant response rating (0 to 100 scale) ([15]; 125 g ai/ha): 90; Foxtail, Giant plant response rating (0 to 100 scale) ([15]; 500 g ai/ha): 90; Ragweed plant response rating (0 to 100 scale) ([16]; 125 g ai/ha): 30; Ragweed plant response rating (0 to 100 scale) ([16]; 500 g ai/ha): 80; Ryegrass, Italian plant response rating (0 to 100 scale) ([17]; 125 g ai/ha): 10; Ryegrass, Italian plant response rating (0 to 100 scale) ([17]; 500 g ai/ha): 90; Rice plant response rating (0 to 100 scale) (rice (Oryza sativa)): 0
CC1=[N+]([O-])C(C(=O)Nc2cccc(F)c2F)C(c2cccc(F)c2C)C1 (racemic) [Compound 78] | 75 | 0 | 50 | 40 | 60 | 0 | 20 | 20 | 50 | 50 | 70 | 60 | 60 | 80 | 90 | 0 | 60 | 70 | 80 | 10 | Ryegrass, Italian plant response rating ([10]; 500 g ai/ha): 50; Barnyardgrass plant response rating (0 to 100 scale) ([11]; 125 g ai/ha): 90; Barnyardgrass plant response rating (0 to 100 scale) ([11]; 500 g ai/ha): 90; Ducksalad plant response rating (0 to 100 scale) [12]: 100; Pigweed plant response rating (0 to 100 scale) ([13]; 125 g ai/ha): 0; Pigweed plant response rating (0 to 100 scale) ([13]; 500 g ai/ha): 80; Kochia plant response rating (0 to 100 scale) (kochia (Kochia scoparia) [14]; 125 g ai/ha): 10; Kochia plant response rating (0 to 100 scale) (kochia (Kochia scoparia) [14]; 500 g ai/ha): 60; Foxtail, Giant plant response rating (0 to 100 scale) ([15]; 125 g ai/ha): 90; Foxtail, Giant plant response rating (0 to 100 scale) ([15]; 500 g ai/ha): 90; Ragweed plant response rating (0 to 100 scale) ([16]; 125 g ai/ha): 20; Ragweed plant response rating (0 to 100 scale) ([16]; 500 g ai/ha): 70; Ryegrass, Italian plant response rating (0 to 100 scale) ([17]; 125 g ai/ha): 30; Ryegrass, Italian plant response rating (0 to 100 scale) ([17]; 500 g ai/ha): 70; Rice plant response rating (0 to 100 scale) (rice (Oryza sativa)): 0

— patent US11498899B2, “Nitrone herbicides” (FMC Corporation, priority 2016, dated 2022)
